Measurements as given in ChEMBL document CHEMBL1649260, “Case of fatal Blastoschizomyces capitatus infection occurring in a patient receiving empiric micafungin therapy” (2009).
In brackets after ≈: the same amount, converted by molar mass. Numbered stars: 1 amine (or outer) side, 2 acyl side, 3 side chain; on linkers, the order of the positions; unused ones are H or OH. Bridge positions count the residues as written; N and C are the ends. Square brackets hold non-standard residues; d marks the D form. Peptide text beside a SMILES is read from it. * marks the point of attachment. hTyr(3S-OH,4S-OH,3'-OSO3H) = N[C@H](C(=O)O)[C@H](O)[C@@H](O)c1ccc(O)c(OS(=O)(=O)O)c1; pTerphenylCO(4''-OnC5H11) = CCCCCOc1ccc(-c2ccc(-c3ccc(C(=O)*)cc3)cc2)cc1; Orn(4R-OH,5R-OH) = O=C([C@H](C[C@@H](O)[C@@H](O)N[*:3])N[*:1])[*:2]; hTyr(3S-OH,4S-OH) = N[C@H](C(=O)O)[C@H](O)[C@@H](O)c1ccc(O)cc1; Pro(3S-OH,4S-Me) = C[C@H]1CN[C@H](C(=O)O)[C@H]1O; X1 = CCCCCOc1ccc(-c2cc(-c3ccc(C(=O)*)cc3)no2)cc1; Gln(3R-OH) = NC(=O)C[C@@H](O)[C@H](N)C(=O)O; Hyp = O=C(O)[C@@H]1C[C@@H](O)CN1

system: Magnusiomyces capitatus; test: Antimicrobial activity against Blastoschizomyces capitatus by microdilution method; format: functional

SMILES | MIC [µg/mL]
C[C@@H]1[C@H](O)[C@@H](C)/C=C/C=C/C=C/C=C/C=C/C=C/C=C/[C@H](O[C@@H]2O[C@H](C)[C@@H](O)[C@H](N)[C@@H]2O)C[C@@H]2O[C@](O)(C[C@@H](O)C[C@@H](O)[C@H](O)CC[C@@H](O)C[C@@H](O)CC(=O)O[C@H]1C)C[C@H](O)[C@H]2C(=O)O [AMPHOTERICIN B] | 0.5 (≈ 0.541 µM)
CCCCCOc1ccc(-c2ccc(-c3ccc(C(=O)N[C@H]4C[C@@H](O)[C@@H](O)NC(=O)[C@@H]5[C@@H](O)[C@@H](C)CN5C(=O)[C@H]([C@@H](C)O)NC(=O)[C@H]([C@H](O)[C@@H](O)c5ccc(O)cc5)NC(=O)[C@@H]5C[C@@H](O)CN5C(=O)[C@H]([C@@H](C)O)NC4=O)cc3)cc2)cc1 [ANIDULAFUNGIN] ({pTerphenylCO(4''-OnC5H11)}-[Orn(4R-OH,5R-OH)]T[Hyp][hTyr(3S-OH,4S-OH)]T[Pro(3S-OH,4S-Me)]; lactam 1-C) | 0.5 (≈ 0.438 µM)
CC[C@H](C)C[C@H](C)CCCCCCCCC(=O)N[C@H]1C[C@@H](O)[C@@H](NCCN)NC(=O)[C@@H]2[C@@H](O)CCN2C(=O)[C@H]([C@H](O)CCN)NC(=O)[C@H]([C@H](O)[C@@H](O)c2ccc(O)cc2)NC(=O)[C@@H]2C[C@@H](O)CN2C(=O)[C@H]([C@@H](C)O)NC1=O [CASPOFUNGIN] | 8 (≈ 7.32 µM)
OC(Cn1cncn1)(Cn1cncn1)c1ccc(F)cc1F [FLUCONAZOLE] | 4 (≈ 13.1 µM)
Nc1nc(=O)[nH]cc1F [FLUCYTOSINE] | ≤ 0.06
CCC(C)n1ncn(-c2ccc(N3CCN(c4ccc(OCC5COC(Cn6cncn6)(c6ccc(Cl)cc6Cl)O5)cc4)CC3)cc2)c1=O (centres undefined) [ITRACONAZOLE] | 0.06 (≈ 0.085 µM)
CCCCCOc1ccc(-c2cc(-c3ccc(C(=O)N[C@H]4C[C@@H](O)[C@@H](O)NC(=O)[C@@H]5[C@@H](O)[C@@H](C)CN5C(=O)[C@H]([C@H](O)CC(N)=O)NC(=O)[C@H]([C@H](O)[C@@H](O)c5ccc(O)c(OS(=O)(=O)O)c5)NC(=O)[C@@H]5C[C@@H](O)CN5C(=O)[C@H]([C@@H](C)O)NC4=O)cc3)no2)cc1 [MICAFUNGIN] (X1-[Orn(4R-OH,5R-OH)]T[Hyp][hTyr(3S-OH,4S-OH,3'-OSO3H)][Gln(3R-OH)][Pro(3S-OH,4S-Me)]; lactam 1-C) | 0.5 (≈ 0.394 µM)
CC[C@@H]([C@H](C)O)n1ncn(-c2ccc(N3CCN(c4ccc(OC[C@@H]5CO[C@@](Cn6cncn6)(c6ccc(F)cc6F)C5)cc4)CC3)cc2)c1=O [POSACONAZOLE] | 0.12 (≈ 0.171 µM)
C[C@@H](c1ncncc1F)[C@](O)(Cn1cncn1)c1ccc(F)cc1F [VORICONAZOLE] | 0.06 (≈ 0.172 µM)
